One series relates to UUO kidneys. Nature of the series: Unilateral Ureteral Obstruction (UUO) model of kidney fibrosis. Conditions: compared to saline-treated UUOs. In kind it is in vivo, mouse.
Series [1] relates to AlexaFluor 488-plasma fibronectin (A488-FN). Nature of the series: Microtiter exogenous plasma fibronectin matrix assembly assay (AH1F fibroblasts). In kind it is cell-based, human. Conditions: for inhibition of fibronectin fibrillogenesis: concentrations up to 20 μM. How it is done: Microtiter fibronectin matrix assembly assays: Exogenous plasma fibronectin matrix assembly assay: Binding and incorporation of AlexaFluor® 488-plasma fibronectin (A488-FN) to fibroblast monolayers (human foreskin fibroblasts, AH1F cells was carried out using methods known in the art. Briefly, fibroblasts (60000 per well) were allowed to adhere and spread for 2 hours in microtiter plates in 2% fetal calf serum (FCS)-containing DMEM. Peptides or modulators to be tested were added followed by 28 nM A488-FN. Cell monolayers with or without peptides and A488FN were incubated overnight at 37° C. with 5% CO2. Cell monolayers in microwells were washed with PBS or HBSS containing Ca^2+, Mg^2+. Fluorescence in 96-well plates was read using a microplate reader using bottom-readout capabilities at 485 nm excitation and 525 nm emission with 20 nm bandwidths. To estimate cell viability per well after the washes and measurement of fluorescence, an equal volume of luminescence reagent (Cell Titer-Glo®) was added followed by quantification of luminescence. Fluorescence of wells to which A488FN had not been added, i.e. intrinsic fluorescence of the cell monolayer was subtracted from fluorescence values of wells containing ligand. Data is presented respectively for fibronectin fibrillogenesis or cell viability as percent of fluorescence or luminescence values for wells with no peptides. Microplate microscopy was used to ascertain that fluorescence measurements correspond to fibrillary fibronectin.
Chain of AlexaFluor 488-plasma fibronectin (A488-FN) (P02751 32-608 limits assumed): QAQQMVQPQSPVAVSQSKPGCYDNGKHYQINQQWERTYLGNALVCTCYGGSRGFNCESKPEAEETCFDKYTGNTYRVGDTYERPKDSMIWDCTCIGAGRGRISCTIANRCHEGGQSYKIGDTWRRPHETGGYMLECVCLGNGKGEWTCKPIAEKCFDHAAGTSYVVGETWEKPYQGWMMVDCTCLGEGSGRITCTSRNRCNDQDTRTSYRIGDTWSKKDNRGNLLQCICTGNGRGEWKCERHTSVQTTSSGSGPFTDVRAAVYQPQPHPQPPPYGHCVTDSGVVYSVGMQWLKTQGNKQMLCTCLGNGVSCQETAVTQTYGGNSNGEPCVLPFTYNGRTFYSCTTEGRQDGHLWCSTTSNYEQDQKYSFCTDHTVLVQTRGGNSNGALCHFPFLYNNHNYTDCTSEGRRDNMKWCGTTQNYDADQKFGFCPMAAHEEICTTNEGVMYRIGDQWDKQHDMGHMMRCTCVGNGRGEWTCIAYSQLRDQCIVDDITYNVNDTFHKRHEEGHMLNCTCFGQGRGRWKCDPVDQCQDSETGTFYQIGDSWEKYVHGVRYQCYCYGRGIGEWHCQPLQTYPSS
To determine whether PEG-FUD retained its ability to inhibit fibronectin fibrillogenesis, PEG-FUD and FUD were compared in cell-based fibronectin matrix assembly assays. The ability of PEG-FUD to inhibit the incorporation of exogenous fibronectin derived from plasma and also of fibronectin endogenously produced by the cultured cells was measured, since fibrosis is likely to contain fibronectin from both sources. Shown in FIG. 12 is the level of fibrils formed from exogenously added A488-FN fibrils in the presence of increasing amounts FUD or PEG-FUD. FIGS. 13 and 14 show endogenous EDA+-fibronectin fibrillogenesis in human fibroblast and human proximal tubular epithelial cells, respectively. In all fluorescence panels, it is evident that PEG-FUD is as efficient as FUD at inhibiting fibronectin assembly dose-dependently with an IC50 of approximately 30 nM. As previously reported, cell viability is negligibly affected by FUD, and PEG-FUD behaves almost identically. There was an approximately 20% decrease in fibroblast viability at the highest concentration of FUD tested (500 nM) with PEG-FUD retaining fibroblast viability almost at 100%. […] Human proximal tubular epithelial cell viability was retained at approximately 100% with treatment by both FUD and PEG-FUD.
Having established the suitability of PEG-FUD as inhibitor of FN fibrillogenesis, a mutated form of FUD, mFUD, was tested as a control peptide. mFUD was PEGylated as described above and the conjugate tested in the exogenous A488-FN binding assay as described for FIG. 1A. […] A maximum concentration of 20 μM was tested because it approximates the concentration used in vivo, both in this study and in the liver fibrosis study.

Series [2] relates to EDA-containing fibronectin. Kind of series: Endogenous (cellular) fibronectin assembly assay, human fibroblasts (AH1F). It counts as cell-based. Conditions: doses up to 500 nM; for IC50: endogenous EDA+-fibronectin, human fibroblasts, read-out: IC50 of fibronectin assembly inhibition. An excerpt:
Endogenous (cellular) fibronectin assembly assay: This immunochemical assay measures the ECM incorporation of EDA-containing fibronectin synthesized by human fibroblasts and human proximal tubular epithelial cells. Human proximal epithelial cells, HK-2 cells, were obtained from ATCC (CRL-2190). The EDA+ fibronectin is a splice variant synthesized and secreted by a variety of cells mostly during embryonic development and during wound healing, ECM remodeling, or fibrotic conditions in the adult. Fibroblasts (AH1F) were cultured in DMEM (Gibco) containing 10% fetal calf serum, and human proximal tubular epithelial cells (HK-2) were cultured in keratinocyte serum free medium (KSFM, containing pituitary extract and rEGF, Invitrogen/Thermo Fisher). Both media also contained 2.5 mM glutamine, 100 IU/ml penicillin, and 100 μg/ml streptomycin. Confluent cells were trypsinized and resuspended in DMEM containing 2% FCS in DMEM for AH1F cells or KSFM for HK-2 cells, at densities that allow delivery of 60,000 AH1F or 20,000 HK-2 cells in 90 μl per well in black-walled, flat transparent bottom 96-well plates. Cells were incubated for 2 h at 37° C. with 5% CO2 and checked microscopically for spreading and confluence. Peptides were then added in 10 μl volumes at 10-fold the desired final concentration. Cell monolayers in microplates were incubated overnight in a humidified 37° C., 5% CO2 chamber. After approximately 22 h, 10 μl of AlamarBlue® was added to the cell monolayers and incubated at 37° C. for 2 h to assess cell viability. Fluorescence of AlamarBlue® was read at 555 nm excitation and 585 nm emission. Microplates were washed twice with HBSS containing Ca^2+, Mg^2+ and 50 μl/well of 4% paraformaldehyde (PFA) in PBS was then added for 10 min at room temperature. […] Similar to the measurement of exogenous A488-FN fluorescence, A488-EDA fluorescence was read using microplate reader equipped with bottom-readout capabilities at 485 nm excitation and 525 nm emission. Fluorescence of wells to which A488-IgG was added, i.e., background green fluorescence from non-specific IgG binding and from the cell monolayer was subtracted from fluorescence values of wells incubated with A488-EDA. Data is presented for fibronectin fibrillogenesis or cell viability as percent of fluorescence values (AlexaFluor® 488 fluorescence or AlamarBlue®, respectively) for wells with no peptides.
To determine whether PEG-FUD retained its ability to inhibit fibronectin fibrillogenesis, PEG-FUD and FUD were compared in cell-based fibronectin matrix assembly assays. The ability of PEG-FUD to inhibit the incorporation of exogenous fibronectin derived from plasma and also of fibronectin endogenously produced by the cultured cells was measured, since fibrosis is likely to contain fibronectin from both sources. […]

Series [3] has as its system human proximal tubular epithelial cells (HK-2). Kind of series: Cell viability of proximal tubular epithelial cells (AlamarBlue). It counts as cell-based. Particulars: doses up to 500 nM. An excerpt: Endogenous (cellular) fibronectin assembly assay: This immunochemical assay measures the ECM incorporation of EDA-containing fibronectin synthesized by human fibroblasts and human proximal tubular epithelial cells. Human proximal epithelial cells, HK-2 cells, were obtained from ATCC (CRL-2190). The EDA+ fibronectin is a splice variant synthesized and secreted by a variety of cells mostly during embryonic development and during wound healing, ECM remodeling, or fibrotic conditions in the adult. […] Fluorescence of AlamarBlue® was read at 555 nm excitation and 585 nm emission. […] Similar to the measurement of exogenous A488-FN fluorescence, A488-EDA fluorescence was read using microplate reader equipped with bottom-readout capabilities at 485 nm excitation and 525 nm emission. Fluorescence of wells to which A488-IgG was added, i.e., background green fluorescence from non-specific IgG binding and from the cell monolayer was subtracted from fluorescence values of wells incubated with A488-EDA. Data is presented for fibronectin fibrillogenesis or cell viability as percent of fluorescence values (AlexaFluor® 488 fluorescence or AlamarBlue®, respectively) for wells with no peptides.

The mark [4] stands for this setting: exogenous A488-FN, doses up to 20 μM, read-out: IC50 of fibrillogenesis inhibition.
Where [5] appears, read: exogenous A488-plasma fibronectin, human fibroblasts, doses up to 500 nM, read-out: IC50 of fibronectin assembly inhibition.

Where two headings read alike, the source gives them in different places. Where no end group is shown, it is not given here.

These results are taken from patent US10828372B2, “Compositions and methods for the inhibition of fibrosis” (WISCONSIN ALUMNI RESEARCH FOUNDATION, priority 2017, dated 2020).

Chain of EDA-containing fibronectin (P02751 32-608 limits assumed): as above

The term IC50 denotes the concentration needed to halve the response being measured. On to “FUD: 49 amino acid FUD peptide, SEQ ID NO: 1, recombinantly expressed, His-tag removed; inhibitor of fibronectin fibrillogenesis (KDQSPLAGESGETEYITEVYGNQQNPVDIDKKLPNETGFSGNMVETEDT; human) [reference compound]”, for which, in the series on UUO kidneys, the “decrease of fibronectin in ECM fractions (immunoblot, normalized to H3)” value is given as “approximately 60%”. The “inhibition of assembly of plasma fibronectin by fibroblasts” value in series [1] (doses up to 500 nM) came out at 70%. The “inhibition of fibronectin fibrillogenesis” value in series [1] (exogenous A488-FN) is 60%. Moreover, the IC50 in series [1] (setting [4]) was 25 to 30 nM; in series [1] (setting [5]) it was ~30 nM; in series [2], ~30 nM. In addition, in series [2], the “inhibition of assembly of cellular fibronectin by fibroblasts” value is 70%. For the same substance, the “human proximal tubular epithelial cell viability” value in series [3] was “approximately 100%”.
As for “PEG-FUD: PEGylated FUD prepared as in Example 1, PEG size not stated; approximately 27 kDa by mass spectrometry, likely the 20 kDa conjugate (KDQSPLAGESGETEYITEVYGNQQNPVDIDKKLPNETGFSGNMVETEDT; not fully specified (N-terminus); also: PEG size not given here)”, the “decrease of fibronectin in ECM fractions (immunoblot, normalized to H3)” value in the series with UUO kidneys is on record as “approximately 80%”. The “inhibition of assembly of plasma fibronectin by fibroblasts” value in series [1] (doses up to 500 nM) is listed as 70%. In series [1] (exogenous A488-FN), the “inhibition of fibronectin fibrillogenesis” value is reported as 60%. For the same substance, the IC50 was 25 to 30 nM in series [1] (setting [4]), ~30 nM in series [1] (setting [5]) and ~30 nM in series [2]. Besides, the “inhibition of assembly of cellular fibronectin by fibroblasts” value in series [2] came to 70%. The “human proximal tubular epithelial cell viability” value in series [3] is “approximately 100%”.
